Like-named read-outs stand apart in the source and are kept apart here.
How the values were obtained:
Cyclooxygenase-2 = target: T1, Cyclooxygenase-2 (Mus musculus, UniProt Q05769); assay: COX-2 assay: LPS-stimulated PGE2 production in mouse peritoneal macrophages (RIA); format: cell-based, mice; conditions: for IC50: mouse peritoneal macrophages, LPS 1 mg/L 9 h, PGE2 by RIA; for COX-1/COX-2: ratio of IC50 COX-1 to IC50 COX-2
T1 construct: endogenous in cells; host or cells: thioglycollate-elicited peritoneal macrophages of male C57BL-6J mice
T1 sequence (Q05769 18-604): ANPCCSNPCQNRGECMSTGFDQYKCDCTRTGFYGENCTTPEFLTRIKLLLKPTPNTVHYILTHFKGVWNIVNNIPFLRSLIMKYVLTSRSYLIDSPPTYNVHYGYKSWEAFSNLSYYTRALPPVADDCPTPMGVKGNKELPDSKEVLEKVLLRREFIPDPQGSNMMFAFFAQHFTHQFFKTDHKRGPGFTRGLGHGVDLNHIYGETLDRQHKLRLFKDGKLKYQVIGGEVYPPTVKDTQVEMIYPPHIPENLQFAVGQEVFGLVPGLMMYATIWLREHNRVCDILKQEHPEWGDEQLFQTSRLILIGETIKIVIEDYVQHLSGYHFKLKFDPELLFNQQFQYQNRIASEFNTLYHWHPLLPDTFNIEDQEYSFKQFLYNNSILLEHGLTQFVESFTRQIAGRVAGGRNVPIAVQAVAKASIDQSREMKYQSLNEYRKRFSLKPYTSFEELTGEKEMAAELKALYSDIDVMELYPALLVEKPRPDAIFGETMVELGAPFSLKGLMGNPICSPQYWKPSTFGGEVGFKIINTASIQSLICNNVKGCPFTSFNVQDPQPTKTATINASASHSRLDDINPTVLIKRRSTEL
Experimental: Cell culture: Adherent macrophages were harvested from the peritoneal cells of male mice (C57BL-6J, Level 2, from Experiment Animal Center, Academy of Military Medical Science) 3 d after the injection (ip) of brewer thioglycollate medium (5 mL/100 g body weight). […] After settlement for 2˜3 h, non-adherent cells were washed by D-Hanks' balanced salt solution. […] Cell viability was examined by trypan blue dye exclusion. All incubation procedures were performed with 5% CO2 in humidified air at 37° C.
COX-2 assay: Macrophages were incubated with test compound at different concentrations or solvent (Me2SO) for 1 h and were stimulated with LPS 1 mg/L for 9 h. The amount of PGE2 in supernatants was measured by RIA. The inhibitory ratio was calculated using the same formula as in COX-1 assay section. Cs, Ct, Cc refer to PGE2 concentration in supernatants of LPS, test compound, and control groups, respectively.
(§1) [formula] Cs, Ct, Cc refer to 6-keto-PGF1[…] concentration in supernatants of calcimycin, test compound, and control groups, respectively.
(§2) Statistical analysis: Data were expressed as the mean±SD of more than three independent experiments. Dose-inhibitory effect curves were fit through “uphill dose response curves, variable slope” using Prism, GraphPad version3.00: […]

[1] = tested on: rat carrageenan-induced foot pad edema; assay: Rat carrageenan-induced foot pad edema assay; format: in vivo, rats; conditions: 10 mg/kg oral
Experimental: Male Sprgue-Dawley rats (190–220 g) were fasted with free access to water at least 16 h prior to experiments. The rats were dosed orally with a 1 ml suspension of test compound in vehicle (0.5% methyl cellulose and 0.025% Tween-20) or with vehicle alone. One hour later a subplantar injection of 0.1 ml of 1% solution of caarageenan in 0.9% strile saline was administered to the right hind foot pad. Paw volume was measured with a displacement plethysmometer 2, 3, and 4 h after caarageenan injection.

Cyclooxygenase-1 = target: T2, Cyclooxygenase-1 (Mus musculus, UniProt P22437); assay: COX-1 assay: calcimycin-stimulated 6-keto-PGF1 production in mouse peritoneal macrophages (RIA); format: cell-based, mice; conditions: calcimycin 1 μmol/L 1 h, 6-keto-PGF1 by RIA
T2 construct: endogenous in cells; host or cells: thioglycollate-elicited peritoneal macrophages of male C57BL-6J mice
T2 sequence (P22437 27-602): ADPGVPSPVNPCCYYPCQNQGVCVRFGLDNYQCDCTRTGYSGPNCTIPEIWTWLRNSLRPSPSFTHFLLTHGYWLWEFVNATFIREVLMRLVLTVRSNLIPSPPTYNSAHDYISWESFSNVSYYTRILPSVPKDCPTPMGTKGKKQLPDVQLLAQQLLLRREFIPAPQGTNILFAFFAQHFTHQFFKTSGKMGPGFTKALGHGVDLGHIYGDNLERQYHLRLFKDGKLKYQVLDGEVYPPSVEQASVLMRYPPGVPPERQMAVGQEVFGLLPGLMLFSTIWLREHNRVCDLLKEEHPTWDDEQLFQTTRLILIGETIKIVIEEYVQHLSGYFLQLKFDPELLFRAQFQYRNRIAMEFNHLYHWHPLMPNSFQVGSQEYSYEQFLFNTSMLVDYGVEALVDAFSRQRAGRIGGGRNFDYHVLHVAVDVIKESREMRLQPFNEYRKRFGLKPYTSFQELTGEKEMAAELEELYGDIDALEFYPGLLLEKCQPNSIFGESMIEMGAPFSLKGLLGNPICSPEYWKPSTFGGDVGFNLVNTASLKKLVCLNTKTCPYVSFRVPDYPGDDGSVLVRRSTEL
Experimental: Cell culture: Adherent macrophages were harvested from the peritoneal cells of male mice (C57BL-6J, Level 2, from Experiment Animal Center, Academy of Military Medical Science) 3 d after the injection (ip) of brewer thioglycollate medium (5 mL/100 g body weight). Shortly, peritoneal cells obtained from 3˜4 mice were mixed and seeded in 48 well cell culture cluster (Costar) at a cell density of 1×10^9 cell/L in RPMI-1640 supplemented with 5% (v/v) newborn calf serum, 100 ku/L penicillin and […] streptomycin. After settlement for 2˜3 h, non-adherent cells were washed by D-Hanks' balanced salt solution. Then macrophages were cultured in RPMI-1640 without serum. Almost all of adherent cells were macrophages as assessed by Giemsa staining. Cell viability was examined by trypan blue dye exclusion. All incubation procedures were performed with 5% CO2 in humidified air at 37° C.
COX-1: assay Macrophages were incubated with test compound at different concentrations or solvent (Me2SO) for 1 h and were stimulated with calcimycin 1 μmol·L^−1 for 1 h. The amount of 6-keto-PGF1[…] (a stable metabolite of PGI2) in supernatants was measured by RIA according to manufacturer's guide. The inhibitory ratio was calculated as
as §1, §2

[2] = 3 h after carrageenan, read-out: inhibitory percentage of edema, 3 hr
[3] = 4 h after carrageenan, read-out: inhibitory percentage of edema, 4 hr

Row | IC50 (Cyclooxygenase-2) [nM] | COX-1/COX-2 (Cyclooxygenase-2) | IC50 (Cyclooxygenase-1) [nM] | Structure (SMILES) | inhibition at 10 mg/kg [1, 2] [%] | inhibition at 10 mg/kg [1, 3] [%]
1 | 24.2 | 6.6 | 159 | CN1CC(c2ccc(S(C)(=O)=O)cc2)=C(c2ccc(Cl)cc2)C1=O [Example 117, N-Methyl-3-(4-chlorophenyl)-4-(4-methylsulfonylphenyl)-2,5-dihydropyrrole-2-one] | 48.2 | 59.3
2 | 11.8 | 4.9 | 57.2 | CN1CC(c2ccc(S(C)(=O)=O)cc2)=C(c2ccc(Br)cc2)C1=O [Example 119, N-Methyl-3-(4-bromophenyl)-4-(4-methylsulfonylphenyl)-2,5-dihydropyrrole-2-one] | 48 | 49.8
3 | 13.8 | 14.5 | 200 | CN1CC(c2ccc(S(C)(=O)=O)cc2)=C(c2ccc(F)cc2)C1=O [Example 120, N-Methyl-3-(4-fluorophenyl)-4-(4-methylsulfonylphenyl)-2,5-dihydropyrrole-2-one] | 39.2 | 26.2
4 | 15 | – | 91.3 | CCCN1CC(c2ccc(S(C)(=O)=O)cc2)=C(c2ccc(C)cc2)C1=O [Example 122, N-Propyl-3-(4-methylphenyl)-4-(4-methylsulfonylphenyl)-2,5-dihydropyrrole-2-one] | 57.2 | 59.3
5 | 28.6 | – | 502 | CCCN1CC(c2ccc(S(C)(=O)=O)cc2)=C(c2ccc(F)cc2)C1=O [Example 123, N-Propyl-3-(4-fluorophenyl)-4-(4-methylsulfonylphenyl)-2,5-dihydropyrrole-2-one] | 49.6 | 50.3
6 | 24.5 | – | 8.02 | CCCN1CC(c2ccc(S(C)(=O)=O)cc2)=C(c2ccc(Cl)cc2)C1=O [Example 124, N-Propyl-3-(4-chlorophenyl)-4-(4-methylsulfonylphenyl)-2,5-dihydropyrrole-2-one] | 39.4 | 32.7
7 | 94.8 | 2.5 | 236 | Cc1ccc(C2=C(c3ccc(S(C)(=O)=O)cc3)CN(C3CC3)C2=O)cc1 [Example 125, N-Cyclopropyl-3-(4-methylphenyl)-4-(4-methylsulfonylphenyl)-2,5-dihydropyrrole-2-one] | 34.1 | 31.1

Row | Structure (SMILES) | IC50 (Cyclooxygenase-2) [nM] | COX-1/COX-2 (Cyclooxygenase-2) | IC50 (Cyclooxygenase-1) [nM] | inhibition at 10 mg/kg [1, 2] [%] | inhibition at 10 mg/kg [1, 3] [%]
8 | CS(=O)(=O)c1ccc(C2=C(c3ccccc3)C(=O)OC2)cc1 [Rofecoxib, reference compound] | 9.57 | – | > 10000 | 45.9 | 50.2

From patent US7112605B2, “Sulfonyl-containing 3,4-diaryl-3-pyrrolin-2-ones, preparation method, and medical use thereof” (Research Institute of Materia Medica Chinese Acadamy of …, priority 2002, dated 2006)
